The text below walks through data of ChEMBL document CHEMBL4665869, “New thiazolopyrimidine as anticancer agents: Synthesis, biological evaluation, DNA binding, molecular modeling and ADMET study” (Bioorg Med Chem Lett, 2020).

Molecules are shown by their SMILES. Active and inactive are the calls of the source. The rule behind the calls is not given here.

Assay type in all cases: functional
Test [1] deals with T47D. The experiment in a line: Growth inhibition of human T47D cells at 10 uM relative to control. As to conditions: read-out: GI.
The subject of test [2] is CCRF-CEM. In words: Growth inhibition of human CCRF-CEM cells at 10 uM relative to control.
For test [3], the system named is SR. The experiment in a line: Growth inhibition of human SR cells at 10 uM relative to control.
Test [4] has as its system A549. In words: Growth inhibition of human A549 cells at 10 uM relative to control.
The subject of test [5] is COLO 205. In words: Growth inhibition of human COLO 205 cells at 10 uM relative to control.
In test [6] the test system is SF-539. The experiment in a line: Growth inhibition of human SF-539 cells at 10 uM relative to control.
Test [7] relates to SK-MEL-2. The experiment in a line: Growth inhibition of human SK-MEL-2 cells at 10 uM relative to control.
In test [8] the test system is UACC-257. In words: Growth inhibition of human UACC-257 cells at 10 uM relative to control.
Test [9] deals with OVCAR-5. The experiment in a line: Growth inhibition of human OVCAR-5 cells at 10 uM relative to control.
Test [10] has as its system NCI/ADR-RES. The experiment in a line: Growth inhibition of human NCI/ADR-RES cells at 10 uM relative to control. As to conditions: read-out: GI.
Test [11] has as its system SK-OV-3. In words: Growth inhibition of human SK-OV-3 cells at 10 uM relative to control.
In test [12] the test system is A498. In words: Growth inhibition of human A498 cells at 10 uM relative to control.
Test [13] deals with CAKI-1. In words: Growth inhibition of human CAKI-1 cells at 10 uM relative to control.
Test [14] relates to UO-31. In words: Growth inhibition of human UO-31 cells at 10 uM relative to control.
Test [15] can be described thus: Growth inhibition of human ovarian cancer cells. As to conditions: Ovarian cancer cell line.

As to `COc1cc(/C=C/C2=CC(c3cc(OC)c(OC)c(OC)c3)N3C=C(C)SC3=N2)cc(OC)c1OC` (configuration not stated), the inhibition of growth at 10 µM stood at 92% in [1] and 80.6% in test [10]. In addition, the “growth inhibition (GI)” value in [2], in [3], in test [4], in test [5], in test [6] and in [7] was “Active” each time. Besides, the “growth inhibition (GI)” value in test [8], in test [9], in test [11], in test [12], in test [13] and in test [14] was “Active” each time. This compound had a GI50 in [15] of 1750 nM. Also, total growth inhibition in test [15] (TGI) required 33.9 µM. For the same compound, in [15] (read-out: LC50 (the source's name)), the CC50 turned out to be 76.5 µM.

What is called GI50 is the concentration at which growth is held to half of that of the control. Higher therefore signals lower sensitivity of the cells. The term TGI denotes the concentration giving total growth inhibition. Read a high TGI as lower sensitivity of the cells.
